How the values were obtained:
[1] = test system: SHI-1, an AML cell line with the genetic aberrancy t(6;11); experiment: Apoptosis assay (Annexin-V/propidium iodide) in t(6;11) SHI-1 cells; type: cell-based; conditions: for cytotoxic activity on t(6;11) AML cells (cell death): SHI-1, 24 h after treatment, compared with TDZ; for apoptotic and dead cells: relative to DMSO
Experimental: (§1) Apoptosis was evaluated by double staining with Annexin-V/propidium iodide (Roche Biochemicals, Indianapolis, IN) and analyzed using Cytometer F C500 (Beckman Coulter, Brea, CA). Increased apoptosis was calculated and expressed as the percentage of Annexin-V-positive and propidium iodide-positive cells compared to those exposed to DMSO.

[2] = test system: SHI-1 cells; experiment: Intracellular Ca2+ measurement (Fluo-4 AM) in SHI-1 cells; type: cell-based; conditions: for mechanism of Ca2+ influx: SHI-1, Ca2+-containing or Ca2+-free buffer
Experimental: (§2) Intracellular Ca^2+ levels were monitored by Fluo-4 AM fluorescence according to the manufacturer's instructions. Briefly, cells were washed in Hanks Balanced Salt Solutions, incubated with Fluo-4 AM 3 μM diluted in the working buffer (0.02% w/v Pluronic and 0.2 mM sulfinpyrazone, both sourced from Sigma-Aldrich-Merck, in 10 mM HEPES-buffered Hanks) for 30′ at RT. After incubation, cells were washed and resuspended in working buffer with CaCl2) 0.2 mg/I for 30′, to allow the de-esterification of Fluo-4 AM. Results were evaluated using the FC500 cytometer, and 2-photon microscope Thorlabs. In both experiments, the mean fluorescence intensity (MFI) was detected at basal condition, and up to 5 minutes after treatment.

[3] = test system: NSG mice; experiment: Stepping test (akinesia, neuroleptic effects); type: in vivo; conditions: for neuroleptic effects (akinesia, stepping test): i.p., 36.85 μmol/Kg (corresponding to 15 mg/kg of TDZ), 1 h after injection
Experimental: Twelve NSG mice between 6 and 8 weeks of age were randomized in 4 groups (DMSO, thioridazine (TDZ), compound according to Example 1 (TDZ2) and compound according to Example 2 (TDZ6)), and treated every 2 days with growing doses of drugs, administered ip. […] The successive growing doses were 10 mg/kg, 12 mg/kg and finally 15 mg/kg, and the corresponding molar dose of the analogues. The stepping test was performed as previously described (Blume S R, Cass D K, Tseng K Y. Stepping test in mice: A reliable approach in determining forelimb akinesia in MPTP-induced Parkinsonism. Exp Neurol. 2009; 219:208-11) 1 h after drug injection, documented to be the time with the maximum TDZ serum concentration (Nagel D, Spranger S, Vincendeau M, Grau M, Raffegerst S, Kloo B, et al. Pharmacologic Inhibition of MALT1 Protease by Phenothiazines as a Therapeutic Approach for the Treatment of Aggressive ABC-DLBCL. Cancer Cell. 2012; 22:825-37). Briefly, the stepping test was performed on an open table and each trial was recorded using a digital video camera. The animal was allowed to settle at one edge of the table, then the experimenter would lift up the hind legs by pulling up on the tail, leaving only the forepaws touching the table, for a total distance of 1 m. The number of steps from both forepaws and the time used were computed.

[4] = test system: other AML cell lines harboring other genetic mutations (HL60, NOMO1, SKNO-1); experiment: Apoptosis assay in non-t(6;11) AML cell lines; type: cell-based; conditions: 24 and 48 h
Experimental: as §1

[5] = test system: t(6;11) SHI-1 cells; experiment: Colonies forming assay in t(6;11) SHI-1 cells; type: cell-based; conditions: 24 h pre-treatment, viable cells seeded in drug-free condition
Experimental: (§3) After 24 h of treatment, a total of 5×10^2 ML2, SHI-1, HL60, SKNO-1 or NOMO-1 cells and 3×10^3 primary blasts from patients with t(6;11)—rearranged AML were seeded into 500 μl of MethoCult™ (H4230 and H4534 respectively, Stemcell Technologies, Meda M B, Italy), in 24-well plates and incubated at 37° C. Fourteen days after seeding, an adequate volume of a 1:6 solution of 3-[4,5-dimethylthiazol-2-yl]-2,5-diphenyltetrazolium bromide (MTT, Sigma-Aldrich-Merck) in Hanks' was added to semisolid medium. Images were acquired by optical microscope with camera, and colonies were counted using ImageJ software.

[6] = test system: non-t(6;11) HL60, NOMO-1, SKNO-1 cells; experiment: Colonies forming assay in non-t(6;11) AML cell lines; type: cell-based; conditions: 24 h of treatment, other AML cell lines
Experimental: as §3

[7] = test system: primary cultures from patients with t(6;11) AML; experiment: Apoptosis assay in primary t(6;11) AML cultures; type: cell-based; conditions: primary t(6;11) AML compared with non-t(6;11)-AML; 24 and 48 h
Experimental: as §1

[8] = test system: healthy bone marrow (HBM) cells; experiment: Apoptosis assay in healthy bone marrow cells; type: cell-based; conditions: 24 and 48 h
Experimental: as §1

[9] = test system: t(6;11)-AML primary cells; experiment: Colonies forming assay in t(6;11)-AML primary cells; type: cell-based
Experimental: as §3

[10] = test system: SHI-1 xenografted mice; experiment: Flank injection xenograft, SHI-1; type: in vivo, NSG mice; conditions: 8 mg/kg daily i.p., compared with control (p<0.01 and p<0.001)
Experimental: (§4) Animal experiments were approved by the animal ethics committee of University of Padova and by Italian Minister of Health n° 512/2019-PR, and were executed in accordance with national guidelines and regulations. For flank injection experiments, six NOD-SCID interleukin-2 receptor gamma null (NSG) mice between 6 and 8 weeks of age were injected subcutaneously with 2×10^6 SHI-1, HL60 or THP-1 cells per flank-injection. Each mouse received two flank-injections. When tumors reached an area of 25 mm^2, mice were randomized in 2 groups (control and TDZ-treated), and daily treated with intraperitoneally (ip) administered TDZ 8 mg/kg. Experimental endpoint is reached when tumors reached an area of 250 mm^2.
(§5) TDZ was also used for further tests and particularly to test if it had same effects on leukemia growth in vivo in NOD/scid IL-2Rgnull (NSG) mice flank-injected with the SHI-1-t(6;11) or non-t(6;11) AML cell lines HL60 and THP-1. Xenografted tumor was allowed to grow up to ˜[…] before starting daily intraperitoneal (i.p.) TDZ administration (at 8 mg/kg concentration, below the previously described tolerated dose (Nagel D, Spranger S, Vincendeau M, Grau M, Raffegerst S, Kloo B, et al. Pharmacologic Inhibition of MALT1 Protease by Phenothiazines as a Therapeutic Approach for the Treatment of Aggressive ABC-DLBCL. Cancer Cell. 2012; 22:825-37)).

[11] = test system: mice xenografted with HL60 or THP1; experiment: Flank injection xenograft, HL60 or THP1; type: in vivo, NSG mice; conditions: 8 mg/kg daily i.p.
Experimental: as §4, §5

[12] = test system: t(6;11) SHI-1 cells; experiment: Reactive oxygen species (CellROX) by flow cytometry; type: cell-based; conditions: 6, 16 and 24 h after treatment, compared with DMSO
Experimental: ROS production was monitored by flow cytometry using CellROX Deep Red Reagent (C10422, Invitrogen) following manufacturer's instructions. Briefly, CellROX Deep Red Reagent was added at a final concentration of 5 μM to the cells and incubated for 30 minutes at 37° C. Cells were washed three times with PBS, and analyzed by flow cytometry using Cytoflex (Beckman Coulter).

[13] = test system: t(6;11) SHI-1 cells; experiment: Mitochondrial membrane potential (TMRE); type: cell-based; conditions: 6 and 24 h after treatment, compared with DMSO
Experimental: Mitochondrial membrane potential was measured by using TMRE Assay Kit (ab113852, Abcam), following manufacturer's instructions Briefly, TMRE 200 nM diluted in BSA 0.2%-PBS1× was added for 20′ at 37° C. Cells were analyzed by flow cytometry using FC500.

[14] = test system: t(6;11) primary cells; experiment: Intracellular Ca2+ measurement (Fluo-4 AM) in t(6;11) primary cells; type: cell-based; conditions: primary cultures of t(6;11) AML
Experimental: as §2

CSc1ccc2c(c1)N(CCC1CCCCN1CCOCCOCCN)c1ccccc1S2 (stereo not shown) [TDZ6]
cytotoxic activity on t(6;11) AML cells (cell death) [1]: maintain cytotoxic activity
mechanism of Ca2+ influx [2]: same mechanism of Ca^2+ influx of TDZ
neuroleptic effects (akinesia, stepping test) [3]: did not induce neuroleptic effects

COCCOCCOCCN1CCCCC1CCN1c2ccccc2Sc2ccc(SC)cc21 (stereo not shown) [TDZ2]
cytotoxic activity on t(6;11) AML cells (cell death) [1]: maintain cytotoxic activity
mechanism of Ca2+ influx [2]: same mechanism of Ca^2+ influx of TDZ
neuroleptic effects (akinesia, stepping test) [3]: did not induce neuroleptic effects

CSc1ccc2c(c1)N(CCC1CCCCN1C)c1ccccc1S2 (racemic) [TDZ, thioridazine]
apoptotic and dead cells ([1]; SHI-1, 24 h of treatment): 60.8%
apoptotic and dead cells ([1]; SHI-1, 48 h of treatment): 84.3%
apoptosis level after MLL-AF6 silencing ([1]; SHI-1, treatment 16 h after MLL-AF6 silencing, 8, 24 and 30 h after treatment): significant rescue of apoptosis level
apoptosis and cell death [4]: almost no effects
colony-forming ability [5]: abrogated colony-forming ability
clonogenic potential [6]: did not decrease the clonogenic potential
apoptosis [7]: induced apoptosis selectively
toxic effects [8]: no toxic effects
colony-forming ability [9]: abrogated colony-forming ability
progression of tumor growth [10]: significantly reduced the progression of tumor growth
tumor growth [11]: not affected
reactive oxygen species (ROS) [12]: highly increased
mitochondrial depolarization (TMRE) [13]: mitochondrial depolarization
intracellular Ca2+, MFI (Fluo-4 AM, flow cytometry) ([2]; 0 minutes post treatment): 68.9
intracellular Ca2+, MFI (Fluo-4 AM, flow cytometry) ([2]; 1 minute post treatment): 91.8
intracellular Ca2+, MFI (Fluo-4 AM, flow cytometry) ([2]; 3 minutes post treatment): 85.8
intracellular Ca2+, MFI (Fluo-4 AM, flow cytometry) ([2]; 5 minutes post treatment): 85.4
rise in intracellular Ca2+ concentration ([2]; Ca2+-containing buffer (external Ca2+ present)): triggers a rise in intracellular Ca^2+ concentration in the presence
Ca2+ intake after EGTA pre-treatment ([2]; SHI-1, EGTA pre-treatment 30' before TDZ): Ca^2+ intake was prevented
cytosolic Ca2+ influx [14]: increased cytosolic Ca^2+ influx
side effects ([3]; 8 mg/kg i.p. starting dose, previously tested): free of side effects
neuroleptic effects (akinesia, stepping test) [3]: provokes severe central side effects

Source: US12319678B2, “Thioridazine derivatives and their use for the treatment of cancer” (UNIVERSITA' DEGLI STUDI DI PADOVA, priority 2019, dated 2025)
